Assay results reported in patent US9700540B2, “Dronedarone for use in leishmaniasis, formulations and associations for use in leishmaniasis” (SANOFI, priority 2012, dated 2017).

Legend:
[1] = system: Axenic amastigotes of L. amazonensis; assay: Growth inhibition of axenic amastigotes of L. amazonensis (SYBRGREEN DNA quantification); format: cell-based, Leishmania amazonensis; conditions: 72 hours of contact
From the text: (§1) A strain of Leishmania amazonensis (MHOM/BR/73/M2269) were used. Dronedarone hydrochloride and meglumine antimoniate were supplied by Sanofi. Amphotericin B (désoxycholate) and miltefosine were bought at Sigma-Aldrich.
1/Axenic amastigotes of L. amazonensis (isolated parasites)
(§2) The first cellular model which cultivates in a medium based on M199, allows defining the intrinsic activity of a substance on the parasite itself while the second cellular model integrates the capacity of the substance to cross the membrane of the macrophage and that of the phagolysosome. The used macrophages are cells RAW 264.7, which cultivate in medium based on DMEM with 10% of foetal serum of veal. • Determination of the IC50 of each of the molecules
(§3) Solutions of dronedarone in the DMSO, meglumine antimoniate and miltefosine in the water, and amphotericin B in an isotonic glucose solution (G5) were prepared before every experiment. The evaluations in vitro were the object of three independent experiments duplicate. The assays were realized by quantifying the parasitic DNA with the SYBRGREEN as described by Audisio and al. (Eur. J. Med. Chem., 52: 44-50, 2012) as well as by qPCR for intramacrophagic amastigotes with amplification of the alpha-tubuline of the parasite. The results obtained with both methods are similar.

[2] = system: Intramacrophagic amastigotes of L. amazonensis; assay: Growth inhibition of intramacrophagic amastigotes of L. amazonensis in RAW 264.7 (SYBRGREEN, qPCR); format: cell-based, Leishmania amazonensis
From the text: as §1
2/Intramacrophagic amastigotes of L. amazonensis (parasites hosted in macrophages, as found in dermis, during the cutaneous Leishmaniosis infection).
as §2, §3

[3] = system: macrophages (cells RAW 264.7); assay: Cytotoxicity on macrophages, Blue Trypan; format: cell-based, human
Method: (§4) Study of the cytotoxicity on macrophages (cells RAW 264.7)
(§5) The non-toxic maximal concentration (CMA) was determined by the technique to the Blue Trypan according to has method described in Audisio and al. (Eur. J. Med. Chem., 52: 44-50, 2012).

[4] = Cytotoxicity on macrophages, Blue Trypan; format: cell-based, human
Method: as §4, §5

[5] = system: Leishmania amazonensis strains resistant to meglumine antimoniate; assay: Chemosensitivity of L. amazonensis strains resistant to meglumine antimoniate, promastigote form; format: cell-based
Method: In vitro study on Leishmania amazonensis strains resistant to meglumine antimoniate (Glucantime®)
On Leishmania amazonensis strains resistant to_meglumine antimoniate (IC50=200 mM) under promastigote form, chemosensitivity to dronedarone is similar that one observed on strains that are not resistant to meglumine antimoniate (active principle of Glucantime®).

[6] = system: axenic amastigotes of L. donovani; assay: Growth inhibition of axenic amastigotes of L. donovani; format: cell-based; conditions: Leishmania donovani, 72 hours
From the text: (§6) Strains of Leishmania donovani (MHOM/ET/67/HU3) and Leishmania major (MHOM/SU/73/5-ASKH) were used for this study.
(§7) 1/Axenic amastigotes of L. donovani and L. major (isolated parasites)
(§8) The model of axenic amastigotes is cultivated in a medium based on M199 and allows defining the intrinsic activity of a substance on the parasite itself while the model of intramacrophagic amastigotes integrates the capacity of the substance to cross the membrane of the macrophage and that of the phagolysosome.
(§9) The solutions of dronedarone in the DMSO, meglumine antimoniate and miltefosine in the water, were prepared before every experiment. The evaluations in vitro were the object of three independent experiments.
(§10) The assays were realized by quantifying the parasitic DNA with the SYBRGREEN as described by Audisio and al. (Eur. J. Med. Chem., 52: 44-50, 2012).

[7] = system: L. major's axenic amastigotes; assay: Growth inhibition of axenic amastigotes of L. major; format: cell-based, Leishmania major; conditions: 72 hours
From the text: as §6, §7, §8, §9, §10

[8] = system: intramacrophagic amastigotes of L. donovani; assay: Growth inhibition of intramacrophagic amastigotes of L. donovani in RAW 264.7; format: cell-based, Leishmania donovani
From the text: as §6
(§11) 2/Intramacrophagic amastigotes of L. donovani and L. major (parasites hosted in macrophages, as found in dermis, during the cutaneous Leishmaniosis infection).
as §8
(§12) The used macrophages are cells RAW 264.7, which cultivate in a medium based on DMEM with 10% of foetal serum of veal.
as §9, §10

[9] = system: L. major's intramacrophagic amastigotes; assay: Growth inhibition of intramacrophagic amastigotes of L. major in RAW 264.7; format: cell-based, Leishmania major
From the text: as §6, §11, §8, §12, §9, §10

[10] = RAW 264.7 macrophages, Blue Trypan
[11] = Leishmania amazonensis, RAW264.7, RAW 264.7, 72 hours of contact
[12] = Leishmania donovani, RAW264.7, 72 hours
[13] = Leishmania major, RAW264.7, 72 hours

Row | Molecule | IC50 [1] [µM] | IC50 ([2]; RAW 264.7, 72 hours of contact) [µM] | non-toxic maximal concentration (CMA) [3, 10] [µM] | IC50 ([1]; Leishmania amazonensis) [µM] | IC50 [2, 11] [µM] | CC50 [4] [µM] | non-toxic maximal concentration (CMA) ([3]; human) [µM] | chemosensitivity compared with strains not resistant to meglumine antimoniate [5] | IC50 [6] [µM] | IC50 ([7]; Leishmania major) [µM] | therapeutic index (CC50/IC50) [8] | IC50 [8, 12] [µM] | therapeutic index (CC50/IC50) [9] | IC50 [9, 13] [µM] | IC50 [7] [µM] | IC50 ([8]; 72 hours) [µM] | IC50 ([9]; 72 hours) [µM]
1 | C[C@@H]1[C@H](O)[C@@H](C)/C=C/C=C/C=C/C=C/C=C/C=C/C=C/[C@H](O[C@@H]2O[C@H](C)[C@@H](O)[C@H](N)[C@@H]2O)C[C@@H]2O[C@](O)(C[C@@H](O)C[C@@H](O)[C@H](O)CC[C@@H](O)C[C@@H](O)CC(=O)O[C@H]1C)C[C@H](O)[C@H]2C(=O)O [amphotericin B] | 0.031 ± 0.002 | 0.047 ± 0.005 | 6.25 | – | – | – | – | – | – | – | – | – | – | – | – | – | –
2 | CCCCc1oc2ccc(NS(C)(=O)=O)cc2c1C(=O)c1ccc(OCCCN(CCCC)CCCC)cc1 [dronedarone, 2-n-Butyl-3-[4-(3-di-n-butylaminopropoxy)benzoyl]-5-methylsulphonamidobenzofuran] | – | – | – | 0.34 ± 0.06 | 0.5 ± 0.22 | > 12.5 | 12.5 | similar | 47.4 ± 6.27 | 2.55 ± 0.51 | > 7 | 1.67 ± 0.1 | > 9 | 1.32 ± 0.12 | – | – | –
3 | CCCCCCCCCCCCCCCCOP(=O)([O-])OCC[N+](C)(C)C [miltefosine] | – | – | – | 0.9 ± 0.2 | 1.87 ± 0.032 | – | 50 | – | 13 ± 1.25 | 5.57 ± 1.5 | – | 0.88 ± 0.1 | – | 0.72 ± 0.11 | – | – | –
4 | meglumine antimoniate | 908 ± 159 | 134 ± 10.4 | > 200 | – | – | – | – | – | – | – | – | – | – | – | > 1000 | 390 ± 40.5 | 348 ± 79.9
